Test results from ChEMBL document CHEMBL1145613, “Tubulysin analogs incorporating desmethyl and dimethyl tubuphenylalanine derivatives” (Bioorg Med Chem Lett, 2008).
pIC50: −log10 of the molar value.

Key:
[1] = Inhibition of rat brain tubulin polymerization
1A9 = test: Antiproliferative activity against human 1A9 cells; format: functional, cell-based

Row | pIC50 [1] | SMILES | pIC50 (1A9)
1 | < 4.70 | CC[C@H](C)[C@H](NC(=O)[C@H]1CCCN1)C(=O)N[C@H](CC(=O)c1nc(C(=O)N[C@H](CCC(=O)O)Cc2ccccc2)cs1)C(C)C | < 4.30
2 | < 4.70 | CC[C@H](C)[C@H](NC(=O)[C@@H]1CCCN1)C(=O)N[C@H](CC(=O)c1nc(C(=O)N[C@H](CCC(=O)O)Cc2ccccc2)cs1)C(C)C | < 4.30
3 | < 4.70 | CC[C@H](C)[C@H](NC(=O)[C@@H]1CCCCN1)C(=O)N[C@H](CC(=O)c1nc(C(=O)N[C@H](CCC(=O)O)Cc2ccccc2)cs1)C(C)C | < 4.30
4 | 4.89 | CC[C@H](C)[C@H](NC(=O)[C@@H]1CCCCN1C)C(=O)N[C@H](CC(=O)c1nc(C(=O)N[C@H](CCC(=O)O)Cc2ccccc2)cs1)C(C)C | < 4.30
5 | 6.22 | CC[C@H](C)[C@H](NC(=O)[C@H]1CCCCN1C)C(=O)N[C@H](CC(=O)c1nc(C(=O)N[C@H](CCC(=O)O)Cc2ccccc2)cs1)C(C)C | 5.40
6 | 5.36 | CC[C@H](C)[C@H](NC(=O)[C@H]1CCCCN1)C(=O)N[C@H](CC(=O)c1nc(C(=O)N[C@H](CCC(=O)O)Cc2ccccc2)cs1)C(C)C | < 4.30

Continued, molecule first:

Row | SMILES | pIC50 [1] | pIC50 (1A9)
7 | CC[C@H](C)[C@H](NC(=O)[C@H]1CCCCN1C)C(=O)N(COC(=O)CC(C)C)[C@H](C[C@@H](OC(C)=O)c1nc(C(=O)N[C@@H](Cc2ccc(O)cc2)C[C@H](C)C(=O)O)cs1)C(C)C [TUBULYSIN-A] | 6.12 | –
8 | CN[C@H](C(=O)N[C@H](C(=O)N(C)[C@H](/C=C(\C)C(=O)O)C(C)C)C(C)(C)C)C(C)(C)c1ccccc1 [TALTOBULIN] | 6.15 | 9.52
9 | CC[C@H](C)[C@H](NC(=O)[C@H]1CCCN1C)C(=O)N[C@H](CC(=O)c1nc(C(=O)N[C@H](CCC(=O)O)Cc2ccccc2)cs1)C(C)C | 5.64 | 4.62
10 | CC[C@H](C)[C@H](NC(=O)[C@H]1CCCCN1C)C(=O)N[C@H](CC(=O)c1nc(C(=O)N[C@@H](Cc2ccccc2)CC(C)(C)C(=O)O)cs1)C(C)C | 5.82 | 6.52
11 | CC[C@H](C)[C@H](NC(=O)[C@H]1CCCN1C)C(=O)N[C@H](CC(=O)c1nc(C(=O)N[C@@H](Cc2ccccc2)CC(C)(C)C(=O)O)cs1)C(C)C | 5.57 | 5.49
12 | CC[C@H](C)[C@H](NC(=O)[C@@H]1CCCN1C)C(=O)N[C@H](CC(=O)c1nc(C(=O)N[C@H](CCC(=O)O)Cc2ccccc2)cs1)C(C)C | 4.96 | 4.30
13 | COc1ccc(/C=C\c2cc(OC)c(OC)c(OC)c2)cc1O [COMBRETASTATIN A4] | – | 8.44
